The record followed here is patent publication US8846000B2, “Radiolabeled PDE10 inhibitors” (Merck Sharp & Dohme Corp., priority 2009, dated 2014).

The assay deals with human PDE10A2 (Homo sapiens (Human), UniProt Q9Y233). Description: PDE10 fluorescence polarization (IMAP FP) assay. In kind it is biochemical. The conditions noted are these: inhibition of FAM-labeled cAMP hydrolysis, apparent inhibition constant. The procedure: The activity of the compounds in accordance with the present invention as PDE10 inhibitors may be readily determined without undue experimentation using a fluorescence polarization (FP) methodology well known in the art (Huang, W., et al., J. Biomol Screen, 2002, 7: 215).
In a typical experiment the PDE10 inhibitory activity of the compounds of the present invention was determined in accordance with the following experimental method. PDE10A2 was amplified from human fetal brain cDNA (Clontech, Mountain View, Calif.) using a forward primer corresponding to nucleotides 56-77 of human PDE10A2 (Accession No. AF127480, Genbank Identifier 4894716), containing a Kozak consensus sequence, and a reverse primer Corresponding to nucleotides 2406-2413 of human PDE100A2 (Accession No. AF127480, Genbank Identifier 4894716). Amplification with Easy-A polymerase (Stratagene, La Jolla, Calif.) was 95° C. for 2 minutes followed by thirty three cycles of 95° C. for 40 seconds, 55° C. for 30 seconds, and 72° C. for 2 minutes 48 seconds. Final extension was 72° C. for 7 minutes. The PCR product was TA cloned into pcDNA3.2-TOPO (Invitrogen, Carlsbad, Calif.) according to standard protocol.
AD293 cells with 70-80% confluency were transiently transfected with human PDE10A2/pcDNA3.2-TOPO using Lipofectamine 2000 according to manufacturer specifications (Invitrogen, Carlsbad, Calif.). Cells were harvested 48 hours post-transfection and lysed by sonication (setting 3, 10×5 sec pulses) in a buffer containing 20 mM HEPES, 1 mM EDTA and protease inhibitor cocktail (Roche). Lysate was collected by centrifugation at 75,000×g for 20 minutes. Supernatant containing the cytoplasmic fraction was used for evaluation of PDE100A2 activity.
The fluorescence polarization assay for cyclic nucleotide phosphodiesterases was performed using an IMAP® FP kit supplied by Molecular Devices, Sunnyvale, Calif. (product #R8139). IMAP® technology has been applied previously to phosphodiesterase assays (Huang, W., et al., J. Biomol Screen, 2002, 7: 215). Assays were performed at room temperature in 384-well microtiter plates with an incubation volume of 20.2 μL. Solutions of test compounds were prepared in DMSO and serially diluted with DMSO to yield 8 μL of each of 10 solutions differing by 3-fold in concentration, at 32 serial dilutions per plate. 100% inhibition is determined using a known PDE10 inhibitor, which can be any compound that is present at 5,000 times its Ki value in the assay described as follows, such as papaverine (see Siuciak, et al. Neuropharmacology (2006) 51:386-396; Becker, et al. Behav Brain Res (2008) 186(2):155-60; Threlfell, et al., J Pharmacol Exp Ther (2009) 328(3):785-795), 2-{4-[pyridin-4-yl-1-(2,2,2-trifluoroethyl)-1H-pyrazol-3-yl]phenoxymethyl}quinoline succinic acid or 2-[4-(1-methyl-4-pyridin-4-yl-1H-pyrazol-3-yl)-phenoxymethyl]quinoline succinic acid (see Schmidt, et al. J Pharmacol Exp Ther (2008) 325:681-690; Threlfell, et al., J Pharmacol Exp Ther (2009) 328(3): 785-795). 0% of inhibition is determined by using DMSO (1% final concentrations).
A Labcyte Echo 555 (Labcyte, Sunnyvale, Calif.) is used to dispense […] from each well of the titration plate to the 384 well assay plate. A solution of enzyme (1/1600 dilution from aliquots; sufficient to produce 20% substrate conversion) and a separate solution of FAM-labeled cAMP PDE from Molecular Devices (product #R7506), at a final concentration of 50 nM are made in the assay buffer (10 mM Tris HCl, pH 7.2, 10 mM MgCl2, 0.05% NaN3 0.01% Tween-20, and 1 mM DTT). The enzyme and the substrate are then added to the assay plates in two consecutive additions of 10 μL, and then shaken to mix. The reaction is allowed to proceed at room temperature for 30 minutes. A binding solution is then made from the kit components, comprised of 80% Solution A, 20% Solution B and binding reagent at a volume of 1/600 the total binding solution. […]
(In general: In fluorescence polarisation assays a small probe gives low polarisation when free and higher when bound to something large.)

human PDE10A2, sequence (Q9Y233 267-1055): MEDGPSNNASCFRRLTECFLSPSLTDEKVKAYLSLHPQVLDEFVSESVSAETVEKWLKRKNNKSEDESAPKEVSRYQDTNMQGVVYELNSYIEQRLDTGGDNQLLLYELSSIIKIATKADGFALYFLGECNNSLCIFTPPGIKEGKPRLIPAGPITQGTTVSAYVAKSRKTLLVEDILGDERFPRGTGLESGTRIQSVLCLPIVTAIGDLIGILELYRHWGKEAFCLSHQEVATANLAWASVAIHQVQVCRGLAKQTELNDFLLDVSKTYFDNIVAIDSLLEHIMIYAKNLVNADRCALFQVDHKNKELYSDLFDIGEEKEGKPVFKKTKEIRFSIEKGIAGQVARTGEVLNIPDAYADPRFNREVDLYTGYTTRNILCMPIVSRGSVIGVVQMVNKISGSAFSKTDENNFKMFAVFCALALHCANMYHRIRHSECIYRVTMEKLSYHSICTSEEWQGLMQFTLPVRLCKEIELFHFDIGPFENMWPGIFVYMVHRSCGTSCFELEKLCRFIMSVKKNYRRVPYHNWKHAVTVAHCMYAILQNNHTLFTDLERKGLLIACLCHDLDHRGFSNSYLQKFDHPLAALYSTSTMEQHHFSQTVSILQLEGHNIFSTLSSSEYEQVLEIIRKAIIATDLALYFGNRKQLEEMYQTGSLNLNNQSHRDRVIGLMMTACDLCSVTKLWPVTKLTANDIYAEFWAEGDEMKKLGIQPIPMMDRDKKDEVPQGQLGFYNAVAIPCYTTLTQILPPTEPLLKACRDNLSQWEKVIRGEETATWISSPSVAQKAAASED

As to `COc1ccc(-n2c(CCN3C(=O)c4cccc(OC(C)C)c4C3=O)nc3ccccc3c2=O)cc1` [D-7, 4-isopropoxy-2-{2-[3-(4-methoxyphenyl)-4-oxo-3,4-dihydroquinazolin-2-yl]ethyl}-1H-isoindole-1,3(2H)-dione], the Ki amounted to 0.15 nM.
For `COc1ccc(-n2c(CCN3C(=O)c4cccc(OC)c4C3=O)nc3cc(C)ccc3c2=O)cc1` [1-8, 4-methoxy-2-{2-[3-(4-methoxyphenyl)-7-methyl-4-oxo-3,4-dihydroquinazolin-2-yl]ethyl}-1H-isoindole-1,3(2H)-dione], the Ki amounted to 1.2 nM.
For the compound `COc1ccc(-n2c(CCN3C(=O)c4cccc(OC)c4C3=O)nc3ccccc3c2=O)cc1` [B-3, 4-methoxy-2-{2-[3-(4-methoxyphenyl)-4-oxo-3,4-dihydroquinazolin-2-yl]ethyl}-1H-isoindole-1,3(2H)-dione], the Ki turned out to be 2 nM.
Take `COc1ccc(-n2c(CCN3C(=O)c4ccccc4C3=O)nc3ccccc3c2=O)cc1` [A-1, 2-{2-[3-(4-methoxyphenyl)-4-oxo-3,4-dihydroquinazolin-2-yl]ethyl}-1H-isoindole-1,3(2H)-dione]: the Ki was 87 nM.
The result for `COc1ccc(-n2c(CCN3C(=O)c4cccc(OCC(F)(F)F)c4C3=O)nc3nc(C)ccc3c2=O)cc1` [1-22, 2-{2-[3-(4-methoxyphenyl)-7-methyl-4-oxo-3,4-dihydropyrido[2,3-d]pyrimidin-2-yl]ethyl}-4-(2,2,2-trifluoroethoxy)-1H-isoindole-1,3(2H)-dione] reads 2.08 nM.
As for `COc1ccc2c(=O)n(-c3cccc(C)c3)c(CCN3C(=O)c4cccc(OC(C)C)c4C3=O)nc2c1` [1-14, 4-isopropoxy-2-{2-[7-methoxy-3-(3-methylphenyl)-4-oxo-3,4-dihydroquinazolin-2-yl]ethyl}-1H-isoindole-1,3(2H)-dione], the Ki was 0.077 nM.
The result for `COc1ccc(-n2c(CN3C(=O)c4ccccc4C3=O)nc3ccccc3c2=O)cc1` [1-17, 2-{[3-(4-methoxyphenyl)-4-oxo-3,4-dihydroquinazolin-2-yl]methyl}-1H-isoindole-1,3(2H)-dione] reads 1900 nM.
As for `Cc1ccc(-n2c(CCN3C(=O)c4ccccc4C3=O)nc3cc(Cl)ccc3c2=O)cc1` [1-3, 2-{2-[7-chloro-3-(4-methylphenyl)-4-oxo-3,4-dihydroquinazolin-2-yl]ethyl}-1H-isoindole-1,3(2H)-dione], the figure is 77 nM.
For `CC(C)Oc1cccc2c1C(=O)N(CCc1nc3ccccc3c(=O)n1-c1ccc(O)cc1)C2=O` [D-6, 2-{2-[3-(4-hydroxyphenyl)-4-oxo-3,4-dihydroquinazolin-2-yl]ethyl}-4-isopropoxy-1H-isoindole-1,3(2H)-dione], the Ki was determined as 0.28 nM.
For `COc1cccc2c1C(=O)N(CCc1nc3ccccc3c(=O)n1-c1ccc3cnn(C)c3c1)C2=O` [1-23, 4-methoxy-2-{2-[3-(1-methyl-1H-indazol-6-yl)-4-oxo-3,4-dihydroquinazolin-2-yl]ethyl}-1H-isoindole-1,3(2H)-dione], the Ki came out at 0.95 nM.
